Literature values in patent US20240123021A1, “PHARMACEUTICAL COMPOSITIONS” (EXTROVIS AG, priority 2021, published 2024).
Square brackets hold non-standard residues; d marks the D form. Peptide text beside a SMILES is read from it. dPhe(4-Cl) = N[C@H](Cc1ccc(Cl)cc1)C(=O)O; d2Nal = N[C@H](Cc1ccc2ccccc2c1)C(=O)O; dCit = NC(=O)NCCC[C@@H](N)C(=O)O; d3Pal = N[C@H](Cc1cccnc1)C(=O)O

Settings: according to Cetrotide EPAR scientific discussion

Compound | aggregation and gelling in solution (in solution) | stability (thermal, aqueous solution)
Acetyl-D-3-(2′-naphtyl)-alanine-D-4-chlorophenylalanine-D-3-(3′-pyridyl)alanine-L-serine-L-tyrosine-D-citruline-L-leucine-L-arginine-L-proline-D-alanine-amide [Cetrorelix] | tends to aggregate and gel | 
CC(=O)N[C@H](Cc1ccc2ccccc2c1)C(=O)N[C@H](Cc1ccc(Cl)cc1)C(=O)N[C@H](Cc1cccnc1)C(=O)N[C@@H](CO)C(=O)N[C@@H](Cc1ccc(O)cc1)C(=O)N[C@H](CCCNC(N)=O)C(=O)N[C@@H](CC(C)C)C(=O)N[C@@H](CCCNC(=N)N)C(=O)N1CCC[C@H]1C(=O)N[C@H](C)C(N)=O [Cetrorelix acetate] (Ac-[d2Nal][dPhe(4-Cl)][d3Pal]SY[dCit]LRP[dA]-NH2) |  | thermally labile and unstable in aqueous solution
